Source: US12048687B2, “Methods of recruiting SDF-producing macrophages” (MedRegen, LLC, priority 2013, dated 2024)
Entries after “also recorded” stand apart in the source; their conditions may differ.

How the values were obtained:
[1] = tested on: full-thickness skin excisional wounds; assay: in vivo full-thickness excisional wound model, mice; parameters: species or system mouse (C57BL/6); conditions: for day of complete wound closure: 5-mm excisions, s.c. Tacrolimus 0.1 mg kg-1 daily, AMD3100 1.0 mg kg-1 every other day, saline day 12
Description: In vivo excisional wound model. Animals aged 8-12 weeks were anesthetized with Isoflurane. The dorsal skin was shaved and cleaned with betadine and 70% ethanol. In mice, the midline and four points 1 cm on each side of the midline were marked by pen. Two points were at the level of the costal margin and two at the iliac crests designating the sites for excision (FIG. 1A). In rats, the four excisional wounds were placed 1 cm to either side of the midline and 1 cm above and below the midpoint between the costal margin and the iliac […] (FIG. 7a). The sterile disposable biopsy punch (5 mm in diameter; Miltex) was aligned vertically over the center of the mark and punched through the skin and Panniculus carnosus by applying pressure and twisting at the same time. The same procedure was repeated, generating four wounds on each animal (Tomlinson and Ferguson, 2003). The animals were house singly after regaining consciousness. For the mouse splinted wound model, one 5 mm excision was made on each side of the midline on the mid back. The donut-shaped, 0.5 mm-thick silicone splints with a diameter two times that of the wound (Grace Bio-Laboratories, Bend, OR) were then centered, sutured and glued (Krazy Glue®; Elmer's Inc., Columbus, OH) (FIG. 1F; Galiano et al., 2004). […] Each wound site was digitally photographed at the indicated time intervals, and wound areas were determined on photographs using Adobe Photoshop (version 7.0; Adobe Systems, San Jose, CA). Changes in wound areas over time were expressed as the percentage of the initial wound areas (FIG. 1). Example 1: AMD3100 plus low-dose Tacrolimus accelerated wound healing after full-thickness skin excision. Four full-thickness wounds were generated by 5-mm diameter circular excisions on the shaved back of a wild-type C57/B6 mouse (FIG. 1A). Each wound site was photographed digitally at the indicated time intervals, and wound areas were calculated using Adobe Photoshop software. Changes in wound areas over time were expressed as the percentage of the initial wound areas (FIG. 1b). […] All wound evaluations were double blinded.

splinted skin wounds = assay: excisional wound splinting model, mice; type: in vivo, mouse; conditions: low-dose regimen, versus saline
Description: In vivo excisional wound model. Animals aged 8-12 weeks were anesthetized with Isoflurane. The dorsal skin was shaved and cleaned with betadine and 70% ethanol. In mice, the midline and four points 1 cm on each side of the midline were marked by pen. Two points were at the level of the costal margin and two at the iliac crests designating the sites for excision (FIG. 1A). […] The sterile disposable biopsy punch (5 mm in diameter; Miltex) was aligned vertically over the center of the mark and punched through the skin and Panniculus carnosus by applying pressure and twisting at the same time. The same procedure was repeated, generating four wounds on each animal (Tomlinson and Ferguson, 2003). The animals were house singly after regaining consciousness. For the mouse splinted wound model, one 5 mm excision was made on each side of the midline on the mid back. The donut-shaped, 0.5 mm-thick silicone splints with a diameter two times that of the wound (Grace Bio-Laboratories, Bend, OR) were then centered, sutured and glued (Krazy Glue®; Elmer's Inc., Columbus, OH) (FIG. 1F; Galiano et al., 2004).
To deter this mechanism, we performed the excisional wound splinting model, where a splinting ring is bonded tightly to the skin around the wound (FIG. 1e). The wound therefore heals through granulation and re-epithelialization, a process similar to the healing of most human skin defects.

[2] = tested on: hair follicles and scar in healed wounds; assay: histology and hair follicle quantification of re-epithelialized wounds, mice; type: in vivo, mouse; conditions: day 15
Description: Histology and microscopy. Tissues from wound sites were collected at day 3, 5, 7, 9 and 15 after injury. Quantitative analysis of hair follicles: The number of regenerated hair follicles was quantified in a double-blind fashion. In nonwounded skin, the number of hair follicles in the area from the same location as the wound were counted and compared to experimental groups (FIG. 2A and FIG. 9A; broken lines indicated wound margin). Masson's trichrome (commercial kit from Polysciences, Inc. Warrington, PA) was used to detect collagen fibers (blue color).

[3] = tested on: c-Kit+, CD34+, CD133+ cells in wound tissue; assay: immunofluorescence staining of wound sections for stem cell markers; type: in vivo, mouse; conditions: mice, 5 days post-injury
Method: (§1) Immunofluorescence staining: For the immunofluorescence staining, frozen sections were fixed with acetone (−20° C.) for 10 min and dried for 1 h at room temperature. PBS containing 1% BSA and 5% normal donkey serum was used to block nonspecific background. Sections were incubated for 1.5 h at room temperature with primary antibodies included: rabbit polyclonal antibody specific for CD133 (1:100, ab19898, Abcam, Cambridge, MA), rabbit polyclonal antibody specific for c-Kit (1:100, sc-168, Santa Cruz Biotechnology, Santa Cruz, CA), goat polyclonal antibody specific for CD34 (1:100, AF4117, R&D Systems, Minneapolis, MN), mouse monoclonal antibody specific for SDF-1 (1:100, MAB310, R&D Systems), FITC-conjugated rat monoclonal antibody specific for F4/80 (1:100, 11-4801, eBioscience, San Diego, CA), mouse monoclonal antibody specific for α-SMA (1:100, ab7817, Abcam), rat monoclonal antibody specific for CD31 (1:100, 14-0311, eBioscience) or rabbit polyclonal antibody specific for HGF (1:100, sc-7949, Santa Cruz), or the combinations of two of them for double fluorescence staining. […] Tissue sections were analyzed by confocal microscopy (Carl Zeiss Microscopy, Thornwood, NY).

[4] = tested on: α-smooth muscle actin (SMA) positive myofibroblast cells; assay: immunofluorescence staining for α-SMA; type: in vivo, mouse; conditions: mice, five days; versus saline group 1
Method: as §1

[5] = tested on: lacZ and GFP positive (CD133 lineage) cells in granulation tissues; assay: CD133 lineage tracing in wounded CD133+/C-L mice; type: in vivo, mouse (CD133+/C-L); conditions: 5 days after wounding, versus saline group 1
Method: To activate CreERT2 expressed from the CD133C-L locus, thereby irreversibly activating GFP expression in CD133+ cells and their progeny, 7 days prior to surgery, adult mT/mG; CD133+/C-L-RosaEGFP mice were injected intraperitoneally with 5.0 mg of tamoxifen (Sigma) dissolved in corn oil (FIG. 6a; Muzumdar et al., 2007). […] Animal were sacrificed by CO2 euthanasia at indicated time points and skin samples including and surrounding the wound area were excised, fixed in 2% paraformaldehyde overnight at 4° C., cryo-protected in 30% sucrose overnight at 4° C. and frozen in OCT (optimum cutting temperature). Frozen sections were obtained using a Leica cryostat and slides were washed in PBS for 5 min. The lacZ analysis was performed with commercial β-Galactosidase staining kit (BioVision Inc. Milpitas, CA) utilizes X-gal as the substrate. […] For GFP microscopy, the skin sections were overlaid with mounting medium with DAPI (Vector Laboratories Inc., Burlingame, CA) and imaged with a confocal fluorescence microscopy (Carl Zeiss Microscopy, Thornwood, NY). To identify structure of lacZ- and GFP-positive tissues and cells, the same section was sequentially stained with DAPI for GFP fluorescence studies, followed by staining with X-gal and hematoxylin and eosin (H&E) (IHC World, Woodstock, MD), according to the manufacturer's instructions. […]

[6] = tested on: skin excisional wounds in diabetic rats; assay: skin excisional wound healing in STZ-induced diabetic rats; type: in vivo, rat (Lewis); conditions: Tacrolimus 0.1 mg/kg daily, AMD3100 1.0 mg/kg every two days s.c., saline day 23
Description: Diabetic rat model. Streptozotocin (STZ) is an antibiotic that can cause pancreatic beta-cell destruction, so it is widely used experimentally as an agent capable of inducing insulin-dependent diabetes mellitus (IDDM), also known as type 1 diabetes mellitus (T1DM). The most common animal model of human diabetes is streptozotocin (STZ)-induced diabetes in the rat. Streptozotocin (STZ)-induced diabetic rat model used to determine the skin wound healing. All rats (aged at 12-16 weeks) developed diabetes (blood glucose >450 mg/dL) 2 weeks after STZ injection (50 mg/kg, i.p.). The four excisional wounds were placed 1 cm to either side of the midline and 1 cm above and below the midpoint between the costal margin and the iliac crests. The sterile disposable biopsy punch (5 mm in diameter; Miltex) was aligned vertically over the center of the mark and punched through the skin and Panniculus carnosus by applying pressure and twisting at the same time. The same procedure was repeated, generating four wounds on each animal. Treatment and wound measurement. […] Each wound site was digitally photographed at the indicated time intervals, and wound areas were determined on photographs using Adobe Photoshop (version 7.0; Adobe Systems, San Jose, CA). Changes in wound areas over time were expressed as the percentage of the initial wound areas. All wound evaluations were double blinded.

[7] = tested on: full-thickness burn wounds; assay: burn wound model in mice; type: in vivo, mouse; conditions: burned mice; Tacrolimus 0.1 mg/kg daily, AMD3100 1.0 mg/kg every two days s.c.; saline day 26
Method: Burn wound model in mice. Mice aged […] were anesthetized with 3% isoflurane (Baxter Healthcare Co., Deerfield, IL, USA) using an anesthesia machine, shaved on the dorsum and depilated with Nair cream (Church & Dwight Co., Princeton, NJ, USA). The burn wound was generated as previously reported (Arch Surg 2010; 145: 259-266). Briefly, a custom made 100-g aluminum rod was heated in a 100° C. water bath for 5 min. One burns of 1.2-cm diameter were produced on the dorsum of each mouse. To assure burn uniformity, only the weight of the rod provided pressure to the skin surface. Contact time of 4 s measured with a metronome was chosen to produce a standardized full-thickness burn. The burns were third degree including destruction of the skin, subcutaneous tissue and the Panniculous carnosus. Buprenorphine (0.1 mg/kg) was administrated subcutaneously for analgesia. Treatment and wound measurement. […] Each wound site was digitally photographed at the indicated time intervals, and wound areas were determined on photographs using Adobe Photoshop (version 7.0; Adobe Systems, San Jose, CA). Changes in wound areas over time were expressed as the percentage of the initial wound areas. All wound evaluations were double blinded.

[8] = tested on: cell migration stimulated by CXCL12; conditions: cited from earlier work
SDF-1 mRNA = assay: semi-quantitative RT-PCR of granulation tissues, SDF-1; type: in vivo, mouse; conditions: mice, 5 days post-injury
Method: Semiquantitative reverse transcription polymerase chain reaction analysis. Skin specimens were kept frozen at −80° C. until homogenized for RNA extraction using the TRIzol Reagent (Invitrogen, Carlsbad, CA, USA). First strand cDNA synthesis was then performed on 5 μg of total RNA using the superscript first-strand synthesis system for reverse transcription polymerase chain reaction (RT-PCR; Invitrogen) according to the manufacturer's instructions. The PCR contained 1 μL of deoxynucleoside triphosphate mix (10 mM each dNTP), 1 μL of 10 μM each primer, 0.4 μL, (5 IU μL−1) of Platinum Taq polymerase (Invitrogen), 1.5 μL of 50 mM MgCl2 and 2 μL […] as template in a 50 μL reaction solution. Thermal cycling was started with one cycle at 94° C. for 4 min. This was followed by 25-35 cycles at 94° C. for 30 s, 59° C. for 30 s, 72° C. for 30 s and 72° C. for final extension for 10 min. PCR products were electrophoresed on 1.2% agarose gels and visualized with GelStar® Stain (Lonza Rockland Inc., Rockland, ME). […] The expression levels of target mRNA were quantified by densitometry and normalized with the corresponding internal control.

[9] = tested on: SDF-1 and F4/80 positive cells (macrophages) in wound sites; assay: immunofluorescence staining for SDF-1 and F4/80; type: in vivo, mouse; conditions: mice, 5 days post-injury
Method: as §1

SMILES | day of complete wound closure [1] [days] | effect of high doses on skin wound healing ([1]; Tacrolimus 1.0 mg kg-1 daily, AMD3100 5.0 mg kg-1 every two days, versus saline) | wound repair in splinted wounds (splinted skin wounds) | number of hair follicles in re-epithelialized wound [2] | number of CD133+, c-Kit+ and CD34+ cells in wound tissue sections [3] | number of α-SMA positive myofibroblast cells in granulation tissues [4] | numbers of lacZ and GFP positive cells in granulation tissues [5] | day of complete wound closure [6] [days] | day of complete wound closure [7] [days] | IC50 [8] [nM] | SDF-1 mRNA expression in granulation tissues (SDF-1 mRNA) | number of SDF-1 and F4/80 positive cells in wound sites [9]
c1cc(CN2CCCNCCNCCCNCC2)ccc1CN1CCCNCCNCCCNCC1 [AMD3100, 1,1′-[1,4-phenylenebis(methylene)]bis-1,4,8,11-tetraazacyclo-tetradecane] | 11 | no significant difference; also recorded: failed to demonstrate significant difference | accelerated | few hair follicles | relatively mild recruitment of stem cells | increased | significantly higher | 21 | 23 | 51 | – | –
C=CC[C@@H]1/C=C(\C)C[C@H](C)C[C@H](OC)[C@H]2O[C@@](O)(C(=O)C(=O)N3CCCC[C@H]3C(=O)O[C@H](/C(C)=C/[C@@H]3CC[C@@H](O)[C@H](OC)C3)[C@H](C)[C@@H](O)CC1=O)[C@H](C)C[C@@H]2OC [Tacrolimus] | 11 | – | accelerated | few hair follicles | – | increased | significantly higher | 21 | 21 | – | significantly increased | significantly greater
